# Results taken from patent publication US7598032B2, “Thermostable DNA polymerases incorporating nucleoside triphosphates labeled with fluorescent dyes” (Roche Molecular Systems, priority 1997, dated 2009).
# Tests used:
# Assay type in all cases: biochemical
# [1] = standard PCR reaction with cyanine-labeled dNTPs; details: compared with the wild-type enzyme
# Description: Although the examples provided herein use dideoxynucleotides labeled with fluorescein family dyes, the use of other unconventional nucleotides and fluorescent dyes is also within the scope of this invention. Other unconventional nucleotides include fluorescently-labled dNTPs, which can be used to label the products of DNA synthesis, and fluorescently-labled rNTPs, which can be used to label the primer extension products. Other dyes include other negatively charged fluorescent dyes, such as BODIPY, which are structurally and chemically similar to fluorescein. Other dyes also include cyanine dyes. Cyanine-labeled dNTPs were added to a standard PCR reaction which included a Taq DNA polymerase with the […] mutation (and a G46D mutation). […] Thus, in this aspect, a method of labeling DNA of the invention uses a native or mutant polymerase of the invention in combination with a nucleotide labeled with either a negatively charged fluorescent dye or a cyanine dye. In one embodiment, the DNA labeling method of the invention comprises: […]
# [2] = test system: primer annealed to an M13 template; experiment: Extension rate assay; details: 75° C
# Procedure: The extension rate of G46D F667Y Taq and G46D F667Y E681K Taq were determined using an extension rate assay. In this experiment, the enzymes were used to extend a primer annealed to an M13 template in the presence of [α-^33P]dCTP. The extension reactions were denatured and the products analyzed by denaturing agarose gel electrophoresis.
# The assay was performed as previously described (Lawyer et al., 1989, J. Biol. Chem. 264:6427) including the following modifications. The assay mixture was composed so the final concentration was 50 mM Bicine pH 8.3, 25° C., 2.5 mM MgCl2, 1 mM β-mercaptoethanol, 200 μM each of dATP, dGTP and dTTP (Perkin-Elmer), 100 μM dCTP (Perkin-Elmer) containing [α-^33P]dCTP (New England Nuclear, Boston, Mass.). M13 mp18 (Perkin-Elmer) was annealed to primer DG48, (SEQ ID NO: 11), and the equivalent of 0.085 pmoles of the annealed template was added to the assay mixture for each reaction. Forty-five μl of the assay mixture with template DNA was added to each of fourteen 0.5 ml eppendorf tubes. Each tube was preincubated at 75° C. for at least 30 seconds before the start of the polymerase reaction.
# Polymerization was initiated in six of the fourteen assay tubes with 5 μl of G46D F667Y Taq DNA polymerase (2.5 units) or G46D F667Y E681K Taq DNA polymerase (1.25 units). Both enzymes were prepared as in Example I and the concentration used represents a predetermined excess amount of enzyme for the amount of substrate in the assay. As a control for the level of background, the remaining negative control was initiated with enzyme dilution buffer rather than polymerase. All reaction tubes were immediately vortexed briefly and incubated at 75° C. Two of the six tubes containing G46D F667Y Taq DNA polymerase were incubated 3 minutes, two for 6 minutes and two for 10 minutes. Similarly, two of the tubes started with G46D F667Y E681K Taq DNA polymerase were incubated for 30 seconds, two for 1 minute and two for 2 minutes. The control tubes were incubated for 3 minutes. The reactions were stopped by addition of 10 μl 60 mM EDTA and stored at 0° C.
# For each reaction, a 25 μl aliquot of the 60 μl reaction was diluted with 1 ml 2 mM EDTA, 50 μg/ml sheared salmon sperm DNA as a carrier. The DNA was precipitated with TCA using standard procedures and collected on GF/C filter discs (Whatman). The amount of incorporated [α-^33P]dCMP was determined for each sample.
# The remaining 35 μl of each duplicated were combined and the 70 μl sample was ethanol precipitated, dried and resuspended in 50 mM NaOH, 1 mM EDTA. Aliquots were removed from these samples such that an equal number of α-^33P] counts were taken from each. These aliquots were loaded on an 0.9% alkaline agarose gel, electrophoresed, dried and autoradiographed as previously described (Maniatis et al., 1982, In Molecular Cloning: A Laboratory Manual, Cold Spring Harbor Laboratory, Cold Spring Harbor, N.Y.) Bacteriophage lambda DNA cut with restriction enzyme HindIII (BRL) and 5′ end-labeled with [^32P] was used as a molecular weight standard.
# The length in base pairs of the extension product in each sample was determined by comparison of the migration distance of each sample with the distance migrated by the lambda DNA size standard. The number of base pairs in each product was divided by the number of seconds each extension reaction incubated to give the extension rate as shown below.
# [3] = test system: primer DG48 annealed to M13 mp18 template; experiment: limiting template, primer extension competition assay (ddNTP incorporation assay); details: ratio of concentrations for 50% inhibition by Zowie-ddCTP vs. ddCTP
# Procedure: The ability of the enzymes of this invention to efficiently incorporate nucleotides labeled with fluorescein family dyes is measured by ddNTP incorporation assays. One such assay is a primer extension competition assay conducted under conditions of limiting template. In this assay, a primer DG48 (5′-[…]), (SEQ ID NO: 11), bound to M13 mp18 template (Innis et al., 1988, Proc. Natl. Acad. Sci. USA 85:9436) is extended in the presence of [α-^33P]dCTP and excess enzyme with various levels of a fluorescently labeled ddNTP, Zowie-ddCTP. Because the incorporation of a ddCTP residue terminates the extension reaction, the more readily a DNA polymerase incorporates a ddCTP into an extended primer, the less [α-^33P]dCTP can be incorporated. Thus, as the efficiency of fluorescently labeled ddCTP incorporation increases, the extent of inhibition of DNA synthesis is increased. The reactions were also performed with various levels of an unlabeled ddCTP. […]
# The relative abilities of G46D F667Y Taq, G46D F667Y E681K Taq and F730Y Tma30 DNA polymerases to incorporate a fluorescein dye family-labeled ddCTP were compared by use of a limiting template, primer extension competition assay. […] In this competition assay, because the incorporation of a ddCTP terminates the extension reaction, the more readily the polymerase incorporates a ddCTP into an extended primer, the less [α-^33P]dCTP can be incorporated. […]
# [4] = screen of transformants for incorporation of [α-32P]Tet-dCTP; details: in comparison to the wild-type enzyme
# Description: The C-terminal amino acid portion of Taq DNA polymerase encodes the polymerase active site domain (Lawyer et al., 1993, PCR Methods and Applications 2:275-287, Freemont et al., 1986, Proteins: Structure, Function and Genetics 1:66-73, which are incorporated herein by reference). A DNA fragment containing this region was isolated from the full-length Taq gene and mutagenized by PCR amplification in the presence of manganese (Leung et al, 1989, Technique 1(1):11-15). For this example, all restriction enzymes were purchased from New England Biolabs, Beverly Mass. The mutagenized fragments were digested with PstI and BglII and cloned into a Taq expression plasmid, pLK102, which had been digested with PstI and BglII. Plasmid pLK102 is a derivative of pLK101 in which the 900 bp PstI-BglII fragment is replaced by a short PstI-BglII linker. […]
# The mutagenized Taq expression plasmid of mutant CS1 was digested with HindIII/NheI and the resulting restriction fragment was subcloned into the wild-type gene of pLK101, replacing the unmutagenized HindIII/NheI fragment, to determine which portion of the mutagenized Taq polymerase gene was responsible for the altered phenotype. […] Subsequent subclone analysis determined that the mutation was located in the 265 bp BamHI-NheI fragment.
substance,measurement,setting,value
"G46D E681K Taq: thermostable Taq DNA polymerase with G46D and E681K mutations, encoded by plasmid pLK112",incorporation of cyanine-labeled dNTPs into amplification products,[1],higher than for the wild-type enzyme
"G46D F667Y Taq: Taq DNA polymerase having an F667Y mutation and a G46D mutation; known as AmpliTaq, FS [reference compound]","extension rate, Base Pairs/Sec",[2]; Time 3 min.,12.5 Base Pairs/Sec
same,"extension rate, Base Pairs/Sec",[2]; Time 6 min.,12.2 Base Pairs/Sec
same,"extension rate, Base Pairs/Sec",[2]; Time 10 min.,11.8 Base Pairs/Sec
same,Zowie-ddCTP/ddCTP (ratio of concentrations for 50% inhibition),[3],25
Mutant CS1: mutagenized Taq DNA polymerase clone (plasmid pCS1) carrying the E681K mutation,ability to incorporate [α-32P]Tet-dCTP,[4],more efficiently incorporate
